The values that follow come from patent US4877774A, “Administration of steroid hormones” (The United States of America as represented by the …, priority 1987, dated 1989).

The nature of data set [1]: physchem. On the procedure:
The appropriate proportions in the mixture can be determined by examining the descending curvature of the Bs-type phase solubility of FIG. 1.
The appropriate mixture was determined by examining the descending curvature of the Bs-type phase solubility diagram, as shown in FIG. 1. […] The complex, which precipitated as a microcrystalline powder, was removed by filtration and dried under vacuum at room temperature for 24 hours.

Another data set has as its system amylases of human saliva. Particulars: cited from earlier work.
For data set [2] the following is noted: human trial; cited from earlier work.
Data set [3] in a line: physchem. The settings on record: water. On the procedure: The dissolution rates of testosterone alone or its release from complexes of interest were measured and compared with published data.

Values after ≈ are worked out from the molar mass of the structure shown. Values joined by “and” are separate entries in the source; they are usually repeats but may differ in a detail not shown here. Equal entries are not always repeated.

What is called solubility is the concentration that dissolves in the medium under given conditions. A low value points to a poorly soluble substance. As for `OC[C@H]1O[C@@H]2O[C@H]3[C@H](O)[C@@H](O)[C@@H](O[C@H]4[C@H](O)[C@@H](O)[C@@H](O[C@H]5[C@H](O)[C@@H](O)[C@@H](O[C@H]6[C@H](O)[C@@H](O)[C@@H](O[C@H]7[C@H](O)[C@@H](O)[C@@H](O[C@H]8[C@H](O)[C@@H](O)[C@@H](O[C@H]9[C@H](O)[C@@H](O)[C@@H](O[C@H]1[C@H](O)[C@H]2O)O[C@@H]9CO)O[C@@H]8CO)O[C@@H]7CO)O[C@@H]6CO)O[C@@H]5CO)O[C@@H]4CO)O[C@@H]3CO` [gamma-cyclodextrin], the solubility in “physchem [1]” (water) is 168 mM (≈ 218 mg/mL). Besides, the “susceptibility to the amylases of human saliva” value in the data set on amylases of human saliva is “susceptible”.
Turning to `OC[C@H]1O[C@@H]2O[C@H]3[C@H](O)[C@@H](O)[C@@H](O[C@H]4[C@H](O)[C@@H](O)[C@@H](O[C@H]5[C@H](O)[C@@H](O)[C@@H](O[C@H]6[C@H](O)[C@@H](O)[C@@H](O[C@H]7[C@H](O)[C@@H](O)[C@@H](O[C@H]8[C@H](O)[C@@H](O)[C@@H](O[C@H]1[C@H](O)[C@H]2O)O[C@@H]8CO)O[C@@H]7CO)O[C@@H]6CO)O[C@@H]5CO)O[C@@H]4CO)O[C@@H]3CO` [beta-cyclodextrin], the “administration of testosterone, estradiol, or progesterone” value in data set [2] is “marginal”.
In the case of `C[C@]12CC[C@H]3[C@@H](CCC4=CC(=O)CC[C@@]43C)[C@@H]1CC[C@@H]2O` [testosterone], the solubility in “physchem [1]” (concentration of testosterone in water (without cyclodextrin), 25° C.) is 130 µM and 37 µg/mL; in “physchem [1]” (gamma-cyclodextrin, limit value of testosterone concentration, with gamma-cyclodextrin, 25° C.), 1210 µM and 350 µg/mL; in the data set “physchem [1]” (gamma-cyclodextrin, maximal solubilization of testosterone, with gamma-cyclodextrin, 25° C.) it was 8700 µM and 2500 µg/mL; in the data set “physchem [3]”, 37 µg/mL (≈ 128 µM).
